Results reported in PMC8388125, “Kinetic and Structural Characterization of the Self-Labeling Protein Tags HaloTag7, SNAP-tag, and CLIP-tag” (Biochemistry, 2021).
Numbering of substitutions follows the chain as printed.

Assays:
Assay type in all cases: biochemical
SNAP-tag (SNAP) = biological target: T1, SNAP-tag (SNAP) (Homo sapiens, UniProt P16455, A127T/A154D/C150Q/C62A/G131K/G132T/G153L/K125A/K32I/L33F/M134L/N157G/Q115S/Q116H/R128A/R135S/S151G/S152D/S159E); assay: SNAP labeling kinetics via microplate reader (FP over time)
T1 construct: made in house; host or cells: E. coli BL21(DE3)-pLysS
T1 sequence (P16455 1-182 K32I/L33F/C62A/Q115S/Q116H/K125A/A127T/R128A/G131K/G132T/M134L/R135S/C150Q/S151G/S152D/G153L/A154D/N157G/S159E limits assumed): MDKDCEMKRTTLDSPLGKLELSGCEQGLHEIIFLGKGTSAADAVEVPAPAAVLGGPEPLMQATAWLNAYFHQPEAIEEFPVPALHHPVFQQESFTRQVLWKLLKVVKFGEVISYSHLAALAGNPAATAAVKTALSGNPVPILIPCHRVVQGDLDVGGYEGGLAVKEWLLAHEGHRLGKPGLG
Method: (§1) Labeling kinetics of SNAP and CLIP substrates were measured by recording FP over time using a microplate reader in a manner analogous to that of HT7 labeling kinetics described above with the following changes. The fluorescent substrate concentration was fixed to 20 nM, and protein concentrations were varied from 15 to 900 nM. Measurements were performed in SNAP-FP buffer.
(§2) Kinetic data from microplate reader assays were fitted to a simplified kinetic model (eq 13) described by differential eqs 14–16 using DynaFit. The dead time of the measurements and baseline FP value were put in as fixed parameters. Standard deviations (normal distribution verified) and confidence intervals of fitted parameters were estimated with the Monte Carlo method with standard settings (N = 1000, 5% worst fits discarded). In the case of BG, CP, and BC kinetics, the substrate concentration was fitted by DynaFit to rule out quantification errors of the BG, CP, or BC fluorophores. Accurate fitting of the concentration was ensured by including conditions under which protein is limiting and no maximum FP value was reached.

CLIP-tag (CLIP) = biological target: T2, CLIP-tag (CLIP) (Homo sapiens, UniProt P16455, A121V/A127T/A154D/C150Q/C62A/G131N/G132T/G153S/K125A/K32I/L33F/M134L/M60I/N157P/Q115S/Q116H/R128A/R135D/S151G/S152D/S159L/Y114E); assay: CLIP labeling kinetics via microplate reader (FP over time); details: CLIP, plate reader, kinetic model 1
T2 construct: made in house; host or cells: E. coli BL21(DE3)-pLysS
T2 sequence (P16455 1-182 K32I/L33F/M60I/C62A/Y114E/Q115S/Q116H/A121V/K125A/A127T/R128A/G131N/G132T/M134L/R135D/C150Q/S151G/S152D/G153S/A154D/N157P/S159L limits assumed): T1 sequence (P16455 1-182 K32I/L33F/C62A/Q115S/Q116H/K125A/A127T/R128A/G131K/G132T/M134L/R135S/C150Q/S151G/S152D/G153L/A154D/N157G/S159E limits assumed) with M60I, Y114E, A121V, K131N, S135D, L153S, G157P, E159L
Method: as §1, §2

CLIPf (CLIP^E30R) = biological target: T3, CLIPf (CLIP^E30R) (Homo sapiens, UniProt P16455, A121V/A127T/A154D/C150Q/C62A/E30R/G131N/G132T/G153S/K125A/K32I/L33F/M134L/M60I/N157P/Q115S/Q116H/R128A/R135D/S151G/S152D/S159L/Y114E); assay: CLIPf labeling kinetics via microplate reader (FP over time); details: plate reader
T3 construct: made in house; host or cells: E. coli BL21(DE3)-pLysS
T3 sequence (P16455 1-182 E30R/K32I/L33F/M60I/C62A/Y114E/Q115S/Q116H/A121V/K125A/A127T/R128A/G131N/G132T/M134L/R135D/C150Q/S151G/S152D/G153S/A154D/N157P/S159L limits assumed): T1 sequence (P16455 1-182 K32I/L33F/C62A/Q115S/Q116H/K125A/A127T/R128A/G131K/G132T/M134L/R135S/C150Q/S151G/S152D/G153L/A154D/N157G/S159E limits assumed) with E30R, M60I, Y114E, A121V, K131N, S135D, L153S, G157P, E159L
Method: as §1, §2

[1] = biological target: T4, hAGT (human O^6-alkylguanine-DNA alkyltransferase) (Homo sapiens, UniProt P16455); assay: hAGT labeling kinetics via microplate reader (FP over time); details: hAGT vs CLIP
T4 construct: StrepTag-II (N); enterokinase cleavage site (N); His10 (C); made in house; host or cells: E. coli BL21(DE3)-pLysS
T4 sequence (P16455 1-207): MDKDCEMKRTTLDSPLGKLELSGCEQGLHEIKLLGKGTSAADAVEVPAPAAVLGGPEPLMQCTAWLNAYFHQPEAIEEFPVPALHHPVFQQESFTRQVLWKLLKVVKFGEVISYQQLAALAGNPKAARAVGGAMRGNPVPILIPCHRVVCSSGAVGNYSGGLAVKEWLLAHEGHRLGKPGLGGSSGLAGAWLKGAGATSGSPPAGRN
Method: as §1, §2

times slower reaction of SNAP than with BG-TMR (SNAP-tag (SNAP); SNAP cross-reactivity): more than 1000 times
kapp (value ± standard deviation) (SNAP-tag (SNAP); SNAP, plate reader, kinetic model 1): (3.20 ± 0.02) × 10^2 M^–1 s^–1
kapp (value ± standard deviation) (CLIP-tag (CLIP)): (1.85 ± 0.01) × 10^4 M^–1 s^–1
kapp (CLIPf (CLIP^E30R)): (3.37 ± 0.01) × 10^4 M^–1 s^–1
times slower reaction with hAGT than with CLIP [1]: 25000 times
Structure (SMILES): CN(C)c1ccc2c(-c3cc(C(=O)NCc4ccc(COc5nccc(N)n5)cc4)ccc3C(=O)[O-])c3ccc(=[N+](C)C)cc-3oc2c1 [BC-TMR]
